# Laboratory results: patent publication US9504729B2, “Antiangiogenic small molecules and methods of use” (The United States of America, as represented by the …, priority 2009, dated 2016)
# Assays:
# [1] = in vitro; conditions: pig
# [2] = molecular target: FGFR1 (Homo sapiens, UniProt P11362); assay: SelectScreen kinase activity profiling, FGFR1; format: biochemical; parameters: concentration or dose not given beside the values; conditions: for Mean % Inhibition: mean of two independent trials
# Source text: (§1) To characterize the RTK inhibitory activity of the antiangiogenic SMs described herein, 36 compounds were chosen and screened using Invitrogen's SelectScreen® kinase activity profiling service (described on-line at tools.invitrogen.com/content.cfm?pageid=10413#selection). VEGFR1 and FGFR2 RTK inhibitory activities were studied. […] Overall, a small minority of the SMs tested had any substantial kinase inhibitory activity. This observation supports a mechanism of antiangiogenic action other than RTK inhibition for most of the SMs described herein.
# [3] = molecular target: KDR(VEGFR2) (Homo sapiens, UniProt P35968); assay: SelectScreen kinase activity profiling, KDR(VEGFR2); format: biochemical; parameters: % Inhibition / Mean % Inhibition: concentration or dose not given beside the values; conditions: KDR(VEGFR2); for Mean % Inhibition: mean of two independent trials
# Source text: as §1
# [4] = first of two independent trials
# [5] = second of two independent trials
# Chain of KDR(VEGFR2) (P35968 20-1356): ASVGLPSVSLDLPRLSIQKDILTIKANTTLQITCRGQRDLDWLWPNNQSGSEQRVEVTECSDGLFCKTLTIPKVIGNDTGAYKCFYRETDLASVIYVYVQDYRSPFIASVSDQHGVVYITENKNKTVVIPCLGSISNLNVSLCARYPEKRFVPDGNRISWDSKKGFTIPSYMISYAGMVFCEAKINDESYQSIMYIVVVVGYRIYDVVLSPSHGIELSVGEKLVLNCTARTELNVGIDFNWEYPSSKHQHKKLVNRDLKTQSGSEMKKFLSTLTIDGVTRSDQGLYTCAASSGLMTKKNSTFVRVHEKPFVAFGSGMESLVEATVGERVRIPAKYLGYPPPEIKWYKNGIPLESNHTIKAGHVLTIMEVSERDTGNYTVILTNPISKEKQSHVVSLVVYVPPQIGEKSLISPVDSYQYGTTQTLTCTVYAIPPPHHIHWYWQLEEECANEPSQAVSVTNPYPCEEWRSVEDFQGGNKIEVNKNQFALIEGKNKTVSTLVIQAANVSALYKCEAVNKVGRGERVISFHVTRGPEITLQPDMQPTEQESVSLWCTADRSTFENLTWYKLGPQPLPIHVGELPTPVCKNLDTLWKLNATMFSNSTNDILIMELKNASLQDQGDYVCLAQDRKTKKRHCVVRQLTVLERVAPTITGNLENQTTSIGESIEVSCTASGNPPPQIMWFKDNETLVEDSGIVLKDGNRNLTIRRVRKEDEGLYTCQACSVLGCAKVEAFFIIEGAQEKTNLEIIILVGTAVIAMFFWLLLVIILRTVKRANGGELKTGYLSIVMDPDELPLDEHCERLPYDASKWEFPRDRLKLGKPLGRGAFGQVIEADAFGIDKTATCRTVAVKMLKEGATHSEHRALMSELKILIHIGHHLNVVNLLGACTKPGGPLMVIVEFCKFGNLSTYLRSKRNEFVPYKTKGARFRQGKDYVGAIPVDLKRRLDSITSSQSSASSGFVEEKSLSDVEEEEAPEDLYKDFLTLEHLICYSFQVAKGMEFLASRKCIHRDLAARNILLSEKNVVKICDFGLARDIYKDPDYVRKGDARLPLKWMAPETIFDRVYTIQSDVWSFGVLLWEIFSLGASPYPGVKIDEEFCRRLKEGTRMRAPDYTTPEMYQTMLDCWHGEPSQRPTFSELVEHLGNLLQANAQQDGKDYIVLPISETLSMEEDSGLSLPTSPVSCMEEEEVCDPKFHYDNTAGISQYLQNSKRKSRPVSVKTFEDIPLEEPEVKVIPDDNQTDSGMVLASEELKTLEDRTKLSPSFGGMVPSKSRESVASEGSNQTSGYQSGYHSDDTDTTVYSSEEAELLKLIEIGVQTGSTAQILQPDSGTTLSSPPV
# Chain of FGFR1 (P11362 398-822 limits assumed): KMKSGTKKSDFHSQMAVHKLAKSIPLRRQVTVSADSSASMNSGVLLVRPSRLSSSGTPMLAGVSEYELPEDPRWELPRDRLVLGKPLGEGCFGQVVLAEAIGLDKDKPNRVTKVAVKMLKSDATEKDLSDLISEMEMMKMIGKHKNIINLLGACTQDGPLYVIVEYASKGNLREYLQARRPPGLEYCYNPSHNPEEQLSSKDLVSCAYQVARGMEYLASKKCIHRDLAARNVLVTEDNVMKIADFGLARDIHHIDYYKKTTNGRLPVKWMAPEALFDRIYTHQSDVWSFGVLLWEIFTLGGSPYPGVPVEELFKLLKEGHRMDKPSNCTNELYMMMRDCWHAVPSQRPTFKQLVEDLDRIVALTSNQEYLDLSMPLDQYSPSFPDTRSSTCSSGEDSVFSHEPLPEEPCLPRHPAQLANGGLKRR
SMILES,cytotoxicity [1] [%],"% Inhibition [2, 4] [%]",Mean % Inhibition [2] [%],"% Inhibition [2, 5] [%]","% Inhibition [3, 4] [%]",Mean % Inhibition [3] [%],"% Inhibition [3, 5] [%]"
"Nc1ccn(C2OC(CO)C3[O][Sn]([c]4ccccc4)([c]4ccccc4)[O]C32)c(=O)n1 (stereo not shown) [Compound 36, 4-amino-1-[6-(hydroxymethyl)-2,2-diphenyl-3a,4,6,6a-tetrahydrofuro[3,4-d][1,3,2]dioxastannol-4-yl]pyrimidin-2-one]",7.66,,,,,,
"CC(C)(C)c1cc(O)ccc1O [Compound 38, 2-tert-butylbenzene-1,4-diol]",6.74,,,,,,
"Cc1cc(O)c(-c2cc(O)c(C)cc2O)cc1O [Compound 40, 2-(2,5-dihydroxy-4-methylphenyl)-5-methylbenzene-1,4-diol]",7.23,,,,,,
"Cc1ccc(S(=O)(=O)OCC(=O)O)cc1 [Compound 41, 2-(4-methylphenyl)sulfonyloxyacetic acid]",7.59,,,,,,
"CC1(C)[C@@H]2CC[C@]1(C)[C@H](OC(=O)CSC#N)C2 [Compound 42, [(1S,4R,6R)-1,7,7-trimethyl-6-bicyclo[2.2.1]heptanyl]2-thiocyanatoacetate]",6.99,,,,,,
"CS(=O)(=O)c1ccc(/C=N/NC(N)=S)cc1 [Compound 43, [(E)-(4-methylsulfonylphenyl)methylideneamino] thiourea]",6.44,,,,,,
"COc1ccc(NCc2c(O)ccc3ccccc23)cc1 [Compound 44, 1-[(4-methoxyanilino)methyl]naphthalen-2-ol]",6.45,,,,,,
Cc1cc(O)c(-c2cc(O)c(C)cc2O)cc1O [compound 2805],,1,6,10,42,47,52
CC1(C)C2CCC1(C)C(OC(=O)CSC#N)C2 (stereo not shown) [compound 3535],,−1,−2,−3,10,8,5
CC(C)(C)c1cc(O)ccc1O [compound 4972],,3,−2,−7,2,7,11
OC(c1cc(-c2ccccc2)nc2c1ccc1ccccc12)C1CCCCN1 (stereo not shown) [compound 13480],,5,8,10,4,3,2
Cc1ccc(S(=O)(=O)OCC(=O)O)cc1 [compound 16555],,3,3,3,11,11,11
O=C(c1no[n+]([O-])c1C(=O)c1csc2ccccc12)c1csc2ccccc12 [compound 18877],,−3,−2,0,10,7,4
CS(=O)(=O)c1ccc(/C=N/NC(N)=S)cc1 [compound 27063],,−3,−3,−2,12,11,11
NC(=O)SCC(=O)Nc1ccc2ncccc2c1 [compound 36738],,−1,1,4,16,16,17
COc1ccc(NCc2c(O)ccc3ccccc23)cc1 [compound 47924],,1,2,3,21,19,18
O=[As](O)(O)c1ccc(Cc2ccc([As](=O)(O)O)cc2)cc1 [compound 48300],,8,9,10,76,77,78
CC(C)(C)c1c2c(c(C(C)(C)C)c3c1OCN(Cc1ccccc1)C3)OCN(Cc1ccccc1)C2 [compound 48458],,5,6,8,13,11,9

SMILES,cytotoxicity [1] [%],"% Inhibition [2, 4] [%]",Mean % Inhibition [2] [%],"% Inhibition [2, 5] [%]","% Inhibition [3, 4] [%]",Mean % Inhibition [3] [%],"% Inhibition [3, 5] [%]"
O=C(O)C1CCCN1Cc1ccc2c(c1)OCO2 (stereo not shown) [compound 108895],,4,4,4,5,6,6
CC1=C(Br)C(=O)C(C)=C(Br)C1=O.Cc1c(O)c(Br)c(C)c(O)c1Br [compound 112200],,9,7,5,100,99,99
O=C(O)c1c(Br)c(Br)c(Br)c(Br)c1C1c2ccc(O)cc2Oc2cc(O)ccc21 [compound 119889],,96,96,95,103,103,104
C1=Cc2ccccc2C1.C=C(C)c1ccccc1.[N-]=[N+]=Nc1ccccc1 [compound 122351],,−1,1,4,4,4,4
O=[N+]([O-])c1ccc(S(=O)(=O)Cc2ccccc2)c([N+](=O)[O-])c1 [compound 122657],,−3,−3,−3,14,14,14
CC(C)(C)c1cc(C#N)cc(Br)c1OP(=O)(Oc1c(Br)cc(C#N)cc1C(C)(C)C)c1ccccc1 [compound 203328],,4,4,4,9,8,7
S=C1SCN(C2CCCCCCCCCCC2)CN1C1CCCCCCCCCCC1 [compound 209910],,2,4,5,9,10,10
COc1ccc(CC2C(=O)NC(C)C(=O)N(C)C3C(=O)N(C)C(Cc4ccc(O)c(c4)Oc4ccc(cc4)C3O)C(=O)NC(C)C(=O)NC(C)C(=O)N2C)cc1 (stereo not shown) [compound 259968],,5,3,2,8,8,9
CCCCC[CH2][Hg][S]c1nc(N)nc2[nH]cnc12 [compound 268879],,3,1,−2,40,39,38
CC(=N[N-]C(=S)SCc1ccccc1)c1ccccn1.[Cl][Cu+] [compound 295642],,2,6,9,19,18,17
CSC(=[SH+])[N-]N=Cc1cccc(C)n1.CSC(=[SH+])[N-]N=Cc1cccc(C)n1.[Cu] [compound 310551],,−5,−3,−1,21,20,18
CSC(=[SH+])[N-]N=C(c1ccccn1)c1ccccn1.[Cu][Br] [compound 321206],,5,5,5,52,49,45
Nc1cc[c]([Hg])cc1.Nc1nc2c(ncn2C2OC(CO)C(O)C2O)c(=[SH+])[nH]1 (stereo not shown) [compound 321237],,7,6,5,105,105,104
O=C1c2ccccc2NC(c2cc(Cl)cc(Cl)c2O)N1CCc1ccccn1 (stereo not shown) [compound 328087],,3,4,5,9,9,9
CC(C)(O)/C=C/C(=O)C(C)(O)C1C(O)CC2(C)C3CC=C4C(C=C(O)C(=O)C4(C)C)C3(C)C(=O)CC12C (stereo not shown) [compound 521777],,1,1,0,10,9,8
CC1(C)CC(Nc2ccc(Nc3ccccc3)cc2)CC(C)(C)N1 [compound 632536],,1,4,7,15,16,16
COc1ccc(-c2csc3c2-n2cccc2C3=O)cc1 [compound 676693],,4,3,3,1,5,8
COC(=O)c1ccc(CCc2cc(O)ccc2O)cc1 [compound 681152],,4,3,3,10,9,8
